Experiment [1] has as its target Serine/threonine-protein kinase B-raf (Homo sapiens) (UniProt P15056). The experiment in a line: (§1) Selectivity interaction (Ambit KINOMEscan and KiNATiv profiling in Jurkat cells) EUB0000090b BRAF. In kind it is cell-based. As to conditions: at 1 µM.
Experiment [2] relates to Serine/threonine-protein kinase B-raf (Homo sapiens), P15056 [V600E]. The description is as §1. In kind it is cell-based. As to conditions: at 1 µM.
The target in experiment [3] is Tyrosine-protein kinase FRK (Homo sapiens) (UniProt P42685). The conditions noted are these: at 10 µM.
Experiment [4] concerns the target T1, Mitogen-activated protein kinase kinase kinase 5 (Homo sapiens) (UniProt Q99683).
T1 sequence (whole entry): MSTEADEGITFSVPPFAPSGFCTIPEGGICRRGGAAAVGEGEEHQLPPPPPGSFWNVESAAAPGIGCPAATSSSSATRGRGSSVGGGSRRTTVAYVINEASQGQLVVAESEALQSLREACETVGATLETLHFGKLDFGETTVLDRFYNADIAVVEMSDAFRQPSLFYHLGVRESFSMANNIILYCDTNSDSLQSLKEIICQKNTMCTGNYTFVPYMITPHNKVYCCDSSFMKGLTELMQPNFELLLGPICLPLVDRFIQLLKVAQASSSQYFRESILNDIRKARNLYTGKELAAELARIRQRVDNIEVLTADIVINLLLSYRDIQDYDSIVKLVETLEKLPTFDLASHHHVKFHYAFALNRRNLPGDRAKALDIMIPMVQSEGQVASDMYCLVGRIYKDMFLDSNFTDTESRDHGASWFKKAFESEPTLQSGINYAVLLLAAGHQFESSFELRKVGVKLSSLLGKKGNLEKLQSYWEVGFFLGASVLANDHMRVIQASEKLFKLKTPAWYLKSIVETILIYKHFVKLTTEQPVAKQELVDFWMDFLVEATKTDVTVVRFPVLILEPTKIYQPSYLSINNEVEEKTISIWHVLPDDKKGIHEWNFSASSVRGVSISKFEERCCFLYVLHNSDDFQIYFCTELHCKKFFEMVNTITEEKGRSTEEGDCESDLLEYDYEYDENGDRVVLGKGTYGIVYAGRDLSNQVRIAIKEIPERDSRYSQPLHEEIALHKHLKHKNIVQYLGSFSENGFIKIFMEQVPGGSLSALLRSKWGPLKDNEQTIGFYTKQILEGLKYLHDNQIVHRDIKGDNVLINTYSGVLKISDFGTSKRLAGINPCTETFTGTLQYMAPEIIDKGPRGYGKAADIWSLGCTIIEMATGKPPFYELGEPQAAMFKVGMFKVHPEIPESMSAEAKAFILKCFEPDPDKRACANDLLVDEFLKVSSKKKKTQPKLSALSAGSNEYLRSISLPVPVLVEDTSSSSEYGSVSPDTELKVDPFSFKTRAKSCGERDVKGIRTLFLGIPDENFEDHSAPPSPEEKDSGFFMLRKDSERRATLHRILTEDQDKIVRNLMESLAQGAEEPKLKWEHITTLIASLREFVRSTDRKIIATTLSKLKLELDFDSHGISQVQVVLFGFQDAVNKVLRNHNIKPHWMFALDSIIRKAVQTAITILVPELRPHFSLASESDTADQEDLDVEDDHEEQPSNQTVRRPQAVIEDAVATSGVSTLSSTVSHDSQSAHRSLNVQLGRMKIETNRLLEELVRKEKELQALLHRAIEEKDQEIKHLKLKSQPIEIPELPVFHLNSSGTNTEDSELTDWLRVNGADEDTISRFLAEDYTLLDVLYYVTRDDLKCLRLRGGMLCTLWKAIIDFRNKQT
The conditions noted are these: at 10 µM.

In experiment [5] the test system is Epidermal growth factor receptor (Homo sapiens), P00533 [UNDEFINED MUTATION]. Briefly: (§2) Selectivity interaction (KinomeScan (DiscoverX)) EUB0001049a EGFR. As to conditions: at 1 µM.
Experiment [6] concerns Epidermal growth factor receptor (Homo sapiens), P00533 [L858R]. The description is as §2. As to conditions: at 1 µM.
Experiment [7] deals with Epidermal growth factor receptor (Homo sapiens), P00533 [L858R,T790M]. Described as §2. As to conditions: at 1 µM.
The subject of experiment [8] is Epidermal growth factor receptor (Homo sapiens), P00533 [G719S]. The description is as §2. The conditions noted are these: at 1 µM.
Experiment [9] has as its system Epidermal growth factor receptor (Homo sapiens), P00533 [T790M]. Described as §2. As to conditions: at 1 µM.
Experiment [10] deals with Epidermal growth factor receptor (Homo sapiens, UniProt P00533). Described as §2. The conditions noted are these: at 1 µM.
Experiment [11] relates to Epidermal growth factor receptor (Homo sapiens), P00533 [G719C]. The experiment is described as §2. As to conditions: at 1 µM.
Experiment [12] relates to Epidermal growth factor receptor (Homo sapiens), P00533 [L861Q]. The description is as §2. As to conditions: at 1 µM.
Experiment [13] addresses T2, Dual specificity mitogen-activated protein kinase kinase 4 (Homo sapiens) (UniProt P45985).
T2 sequence (whole entry): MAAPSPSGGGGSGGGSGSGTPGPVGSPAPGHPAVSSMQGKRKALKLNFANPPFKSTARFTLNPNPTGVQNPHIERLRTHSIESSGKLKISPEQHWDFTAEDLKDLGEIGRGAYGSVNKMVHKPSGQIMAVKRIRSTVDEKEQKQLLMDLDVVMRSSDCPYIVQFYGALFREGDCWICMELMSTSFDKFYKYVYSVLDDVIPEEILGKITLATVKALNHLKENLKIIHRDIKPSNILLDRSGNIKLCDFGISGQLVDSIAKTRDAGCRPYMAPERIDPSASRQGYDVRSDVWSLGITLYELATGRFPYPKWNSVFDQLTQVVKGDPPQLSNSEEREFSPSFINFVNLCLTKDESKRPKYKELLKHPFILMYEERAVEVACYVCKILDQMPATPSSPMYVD
Briefly: Selectivity interaction (Kinase panel (DSF assay)) EUB0001559a MAP2K4.

The structures appear in SMILES notation.

Epidermal growth factor receptor (Homo sapiens), P00533 [L861Q], sequence (P00533 whole entry L861Q): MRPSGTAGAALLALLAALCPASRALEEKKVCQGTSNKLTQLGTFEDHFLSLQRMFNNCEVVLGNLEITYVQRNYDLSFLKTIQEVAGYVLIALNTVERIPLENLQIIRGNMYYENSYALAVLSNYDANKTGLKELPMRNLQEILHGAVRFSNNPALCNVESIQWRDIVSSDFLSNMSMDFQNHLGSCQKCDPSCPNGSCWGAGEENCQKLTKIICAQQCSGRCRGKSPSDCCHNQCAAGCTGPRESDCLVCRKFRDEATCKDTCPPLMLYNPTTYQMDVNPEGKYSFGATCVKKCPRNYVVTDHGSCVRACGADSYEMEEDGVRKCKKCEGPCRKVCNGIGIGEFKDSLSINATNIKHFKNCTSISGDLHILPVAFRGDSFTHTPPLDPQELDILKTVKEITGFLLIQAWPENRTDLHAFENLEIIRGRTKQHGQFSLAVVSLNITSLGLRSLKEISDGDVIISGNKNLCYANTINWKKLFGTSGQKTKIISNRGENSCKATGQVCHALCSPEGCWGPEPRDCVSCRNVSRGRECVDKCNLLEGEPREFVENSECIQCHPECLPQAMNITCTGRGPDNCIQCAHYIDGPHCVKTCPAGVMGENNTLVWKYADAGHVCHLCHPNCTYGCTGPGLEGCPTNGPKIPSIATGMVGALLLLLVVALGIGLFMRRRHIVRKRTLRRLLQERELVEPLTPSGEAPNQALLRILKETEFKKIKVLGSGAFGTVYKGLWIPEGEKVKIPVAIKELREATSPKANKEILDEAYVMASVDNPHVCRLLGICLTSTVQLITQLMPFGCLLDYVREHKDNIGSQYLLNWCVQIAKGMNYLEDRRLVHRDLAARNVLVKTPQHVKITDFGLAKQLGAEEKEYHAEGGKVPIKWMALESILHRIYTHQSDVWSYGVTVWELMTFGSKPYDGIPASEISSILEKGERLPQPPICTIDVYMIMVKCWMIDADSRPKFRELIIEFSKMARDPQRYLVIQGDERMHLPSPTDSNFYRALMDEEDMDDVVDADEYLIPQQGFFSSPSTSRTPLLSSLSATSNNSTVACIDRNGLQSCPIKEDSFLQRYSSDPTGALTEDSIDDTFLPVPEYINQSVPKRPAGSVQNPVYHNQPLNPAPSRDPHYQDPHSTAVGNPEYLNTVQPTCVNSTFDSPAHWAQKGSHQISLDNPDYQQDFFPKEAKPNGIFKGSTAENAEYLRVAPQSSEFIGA
Tyrosine-protein kinase FRK (Homo sapiens), sequence (P42685 whole entry): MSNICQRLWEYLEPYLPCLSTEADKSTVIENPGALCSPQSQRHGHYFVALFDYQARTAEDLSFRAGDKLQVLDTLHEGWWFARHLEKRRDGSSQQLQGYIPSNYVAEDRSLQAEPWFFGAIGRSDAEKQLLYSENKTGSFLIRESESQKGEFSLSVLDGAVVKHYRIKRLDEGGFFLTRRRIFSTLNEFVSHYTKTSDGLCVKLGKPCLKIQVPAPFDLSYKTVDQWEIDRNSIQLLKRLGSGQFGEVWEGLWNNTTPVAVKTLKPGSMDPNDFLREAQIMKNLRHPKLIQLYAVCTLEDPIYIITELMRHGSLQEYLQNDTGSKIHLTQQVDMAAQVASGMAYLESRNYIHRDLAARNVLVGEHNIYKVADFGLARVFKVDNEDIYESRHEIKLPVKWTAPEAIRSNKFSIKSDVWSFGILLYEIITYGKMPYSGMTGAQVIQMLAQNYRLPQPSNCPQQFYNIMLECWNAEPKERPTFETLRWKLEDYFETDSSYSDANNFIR
Serine/threonine-protein kinase B-raf (Homo sapiens), P15056 [V600E], sequence (P15056 whole entry V600E): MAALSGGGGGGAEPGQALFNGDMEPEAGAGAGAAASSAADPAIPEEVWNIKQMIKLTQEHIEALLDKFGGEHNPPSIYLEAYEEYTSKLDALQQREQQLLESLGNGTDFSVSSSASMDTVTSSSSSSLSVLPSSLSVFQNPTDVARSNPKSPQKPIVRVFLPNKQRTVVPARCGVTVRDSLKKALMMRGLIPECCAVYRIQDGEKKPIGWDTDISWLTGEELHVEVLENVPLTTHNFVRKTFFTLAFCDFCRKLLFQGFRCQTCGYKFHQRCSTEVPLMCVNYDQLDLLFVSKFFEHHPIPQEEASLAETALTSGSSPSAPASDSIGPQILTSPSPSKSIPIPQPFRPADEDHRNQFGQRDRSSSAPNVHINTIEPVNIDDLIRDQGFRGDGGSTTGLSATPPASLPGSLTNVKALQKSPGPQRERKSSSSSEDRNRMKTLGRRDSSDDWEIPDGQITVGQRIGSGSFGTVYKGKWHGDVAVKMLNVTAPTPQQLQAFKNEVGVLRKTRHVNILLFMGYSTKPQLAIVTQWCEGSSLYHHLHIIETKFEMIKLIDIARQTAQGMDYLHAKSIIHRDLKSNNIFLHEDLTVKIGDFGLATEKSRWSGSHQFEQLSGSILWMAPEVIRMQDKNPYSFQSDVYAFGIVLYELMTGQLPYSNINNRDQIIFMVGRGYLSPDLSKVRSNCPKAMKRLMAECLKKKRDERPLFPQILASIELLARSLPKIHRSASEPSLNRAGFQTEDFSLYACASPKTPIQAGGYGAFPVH
Epidermal growth factor receptor (Homo sapiens), P00533 [L858R], sequence (P00533 whole entry L858R): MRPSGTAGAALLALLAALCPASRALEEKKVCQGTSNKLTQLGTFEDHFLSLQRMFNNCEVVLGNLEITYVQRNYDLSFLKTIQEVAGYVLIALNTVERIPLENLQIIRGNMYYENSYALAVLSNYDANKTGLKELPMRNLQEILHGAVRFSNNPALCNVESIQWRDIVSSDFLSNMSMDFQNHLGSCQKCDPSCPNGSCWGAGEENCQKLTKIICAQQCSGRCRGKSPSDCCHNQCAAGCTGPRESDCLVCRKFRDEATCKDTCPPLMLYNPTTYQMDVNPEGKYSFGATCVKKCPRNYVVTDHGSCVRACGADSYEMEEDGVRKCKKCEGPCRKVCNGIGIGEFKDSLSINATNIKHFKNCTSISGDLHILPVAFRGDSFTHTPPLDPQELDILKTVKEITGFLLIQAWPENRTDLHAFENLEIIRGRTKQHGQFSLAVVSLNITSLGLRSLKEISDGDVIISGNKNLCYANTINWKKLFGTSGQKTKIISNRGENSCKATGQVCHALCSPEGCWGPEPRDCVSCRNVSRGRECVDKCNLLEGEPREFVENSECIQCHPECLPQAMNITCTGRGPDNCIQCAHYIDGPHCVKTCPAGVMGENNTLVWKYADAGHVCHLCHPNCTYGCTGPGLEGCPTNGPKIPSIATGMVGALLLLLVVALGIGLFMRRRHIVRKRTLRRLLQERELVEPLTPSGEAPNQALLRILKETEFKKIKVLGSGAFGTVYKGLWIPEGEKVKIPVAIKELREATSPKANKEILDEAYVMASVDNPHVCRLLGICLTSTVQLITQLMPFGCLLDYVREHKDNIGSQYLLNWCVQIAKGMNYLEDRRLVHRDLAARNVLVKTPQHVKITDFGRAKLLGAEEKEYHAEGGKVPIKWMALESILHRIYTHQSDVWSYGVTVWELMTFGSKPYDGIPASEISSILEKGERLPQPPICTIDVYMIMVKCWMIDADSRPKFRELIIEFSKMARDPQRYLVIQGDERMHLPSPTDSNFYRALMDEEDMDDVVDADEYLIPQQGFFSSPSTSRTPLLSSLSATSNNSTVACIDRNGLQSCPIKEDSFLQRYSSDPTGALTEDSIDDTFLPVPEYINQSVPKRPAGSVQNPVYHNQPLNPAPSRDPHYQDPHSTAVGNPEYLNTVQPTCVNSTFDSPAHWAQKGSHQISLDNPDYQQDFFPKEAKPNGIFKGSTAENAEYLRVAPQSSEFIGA
Epidermal growth factor receptor (Homo sapiens), P00533 [T790M], sequence (P00533 whole entry T790M): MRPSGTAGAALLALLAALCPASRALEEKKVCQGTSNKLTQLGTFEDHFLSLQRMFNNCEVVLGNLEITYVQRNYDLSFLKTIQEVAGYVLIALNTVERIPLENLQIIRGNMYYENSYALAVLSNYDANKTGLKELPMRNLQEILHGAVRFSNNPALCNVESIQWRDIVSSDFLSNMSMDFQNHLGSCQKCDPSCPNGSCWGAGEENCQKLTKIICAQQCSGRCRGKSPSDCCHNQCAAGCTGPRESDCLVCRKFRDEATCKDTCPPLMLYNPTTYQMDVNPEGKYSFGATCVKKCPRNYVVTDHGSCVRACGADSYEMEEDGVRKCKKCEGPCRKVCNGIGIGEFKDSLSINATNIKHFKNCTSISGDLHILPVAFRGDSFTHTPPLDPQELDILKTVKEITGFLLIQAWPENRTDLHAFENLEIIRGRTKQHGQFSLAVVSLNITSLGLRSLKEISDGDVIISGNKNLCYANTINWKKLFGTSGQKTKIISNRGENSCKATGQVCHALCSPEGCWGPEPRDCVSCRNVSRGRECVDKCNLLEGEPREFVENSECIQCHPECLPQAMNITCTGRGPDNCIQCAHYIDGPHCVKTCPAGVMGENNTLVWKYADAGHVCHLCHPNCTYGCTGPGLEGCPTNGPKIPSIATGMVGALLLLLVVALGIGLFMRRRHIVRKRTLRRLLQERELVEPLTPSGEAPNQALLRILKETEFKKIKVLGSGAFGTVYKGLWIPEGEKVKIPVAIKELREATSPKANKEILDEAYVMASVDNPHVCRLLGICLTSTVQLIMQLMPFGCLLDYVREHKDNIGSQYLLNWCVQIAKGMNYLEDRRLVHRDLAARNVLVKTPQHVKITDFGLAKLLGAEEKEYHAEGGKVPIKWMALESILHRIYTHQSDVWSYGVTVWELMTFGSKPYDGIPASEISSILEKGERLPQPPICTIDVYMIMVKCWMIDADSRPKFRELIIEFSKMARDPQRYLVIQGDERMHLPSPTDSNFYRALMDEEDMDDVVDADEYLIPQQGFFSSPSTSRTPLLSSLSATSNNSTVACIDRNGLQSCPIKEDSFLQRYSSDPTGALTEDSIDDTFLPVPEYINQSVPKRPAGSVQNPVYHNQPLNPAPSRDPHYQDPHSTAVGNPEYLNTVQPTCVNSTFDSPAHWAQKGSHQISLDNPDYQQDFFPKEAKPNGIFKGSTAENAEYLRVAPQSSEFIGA
Serine/threonine-protein kinase B-raf (Homo sapiens), sequence (P15056 whole entry): as the sequence (P15056 whole entry V600E) above, with E600V counted along it

`CN(C)C/C=C/C(=O)Nc1ccc(C(=O)N2CCCC(Nc3ncc(Cl)c(-c4c[nH]c5ccccc45)n3)C2)cc1` (stereo not drawn): the % of control in experiment [1] amounted to 98%; in [2], 100%.

`Cc1cc([C@@H](C)Nc2ccccc2C(=O)O)c2nc(N3CCOCC3)cc(=O)n2c1` [AZD-6482]: the % of control in [3] was 83%.

In [4], `CCN(CC)CCCCNc1ncc2cc(-c3cc(OC)cc(OC)c3)c(NC(=O)NC(C)(C)C)nc2n1` had a % of control of 100%.

As to `COc1cc(Nc2nc(C)cc(-c3cnn4nc(OC)ccc34)n2)cc(C(F)(F)F)c1`, the % of control in [5] amounted to 100%; in [6] it was 89%; in experiment [7] it was 68%; in [8], 94%; in [9], 93%; in experiment [10], 95%. Further, the % of control in experiment [11] and in experiment [12] was 100% throughout.

In [13], `CN(C(=O)c1cnn2cccnc12)c1cc2c(cc1N1CCOCC1)C(=O)N(C[C@@H](F)C(C)(C)O)C2` yielded a dTM of 0.2 K.

Source of the values: ChEMBL document CHEMBL5465560, “Selectivity Literature for EUbOPEN Chemogenomic Library” (2024).
